The results in this text go back to paper PMC9330537, “DCLK1 promotes colorectal cancer stemness and aggressiveness via the XRCC5/COX2 axis” (Theranostics, 2022).

In this assay the target is T1, DCLK1 (Doublecortin-like kinase 1) (Homo sapiens, UniProt O15075).
T1 sequence (O15075 1-740): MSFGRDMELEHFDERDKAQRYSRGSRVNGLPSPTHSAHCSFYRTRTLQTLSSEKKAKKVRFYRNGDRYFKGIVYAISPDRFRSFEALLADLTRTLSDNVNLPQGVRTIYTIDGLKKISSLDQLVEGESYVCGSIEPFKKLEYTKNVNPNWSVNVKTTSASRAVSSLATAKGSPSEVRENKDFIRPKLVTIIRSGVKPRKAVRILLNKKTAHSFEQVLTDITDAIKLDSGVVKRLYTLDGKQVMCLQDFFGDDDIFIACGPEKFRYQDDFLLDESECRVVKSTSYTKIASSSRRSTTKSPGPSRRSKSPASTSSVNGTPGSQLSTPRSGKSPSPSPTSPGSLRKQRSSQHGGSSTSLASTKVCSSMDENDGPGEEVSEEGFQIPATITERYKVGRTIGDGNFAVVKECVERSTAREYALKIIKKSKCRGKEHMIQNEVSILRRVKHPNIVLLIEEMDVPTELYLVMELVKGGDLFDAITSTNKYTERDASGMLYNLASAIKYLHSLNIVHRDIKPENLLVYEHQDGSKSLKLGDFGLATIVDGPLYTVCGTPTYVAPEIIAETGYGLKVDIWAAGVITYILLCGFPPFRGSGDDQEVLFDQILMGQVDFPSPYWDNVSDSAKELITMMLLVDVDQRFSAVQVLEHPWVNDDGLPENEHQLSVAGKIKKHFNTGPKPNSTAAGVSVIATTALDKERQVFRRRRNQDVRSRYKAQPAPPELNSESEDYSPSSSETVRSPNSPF
As to the kind of experiment: DCLK1 kinase activity assay, dose response. In kind it is biochemical.

For orientation: IC50 means the concentration needed to halve the response being measured. Low values mean greater potency in that assay, high ones weaker potency in that assay. `COc1cc(N2CCN(C)CC2)ccc1Nc1ncc2c(n1)N(C)c1ccccc1C(=O)N2CC(F)(F)F` [DCLK1-IN-1] showed an IC50 of 143 nM.
